Consider 5 molecules from the supplement of paper PMC11061612.

Test in all cases: combination Emax (second highest fraction inhibited in the dose matrix, 72 h); higher = more inhibition; extreme values may be limits of the assay
Assay [1] deals with NCI-H1694 (Small Cell Lung Carcinoma). The procedure, abridged:
(§1)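 After 24 hours at 37°C and 5% CO2 in 1536-well plates, cells in DMEM/F12 or RPMI plus 10% FBS received two-drug dose matrices for 72 hours. Viability came from CellTiter-Glo 2.0 luminescence and was scaled as inhibition, anchored at 0 by vehicle wells and at 1 by blank wells. Combination Emax is taken as the second-highest inhibition in the matrix, and Bliss excess as the observed combination effect less EA + EB − EA·EB, with EA and EB the single-agent effects.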

For assay [2], the system named is SNU-C5 (Colorectal Carcinoma). The procedure, abridged: as §1
Assay [3] has as its system IGR-1 (Melanoma). The procedure, abridged: as §1
The subject of assay [4] is SW1088 (Low Grade Glioma). The procedure, abridged:
as §1

Assay [5] concerns KATOIII (Gastric Carcinoma). The procedure, abridged:
as §1

Assay [6] has as its system RH-1 (Ewing's Sarcoma). The procedure, abridged:
as §1

The test system of assay [7] is NCI-H1793 (Lung Adenocarcinoma). The procedure, abridged: as §1
Assay [8] relates to MDA-MB-231 (Breast Carcinoma). The procedure, abridged: as §1
The subject of assay [9] is C3A (Hepatocellular Carcinoma). The procedure, abridged: as §1
Assay [10] concerns SW780 (Bladder Carcinoma). The procedure, abridged: as §1
Assay [11] concerns G-292-Clone-A141B1 (Osteosarcoma). The procedure, abridged: as §1
The subject of assay [12] is NCI-H2369 (Mesothelioma). The procedure, abridged: as §1
Assay [13] relates to SW1783 (Low Grade Glioma). The procedure, abridged: as §1
Assay [14] deals with SN12C (Kidney Carcinoma). The procedure, abridged: as §1
Assay [15] has as its system HT-29 (Colorectal Carcinoma). The procedure, abridged:
as §1

In assay [16] the test system is NCI-H1299 (Non-Small Cell Lung Carcinoma). The procedure, abridged: as §1
Assay [17] deals with CFPAC-1 (Pancreatic Carcinoma). The procedure, abridged: as §1
In assay [18] the test system is NALM-6 (B-Lymphoblastic Leukemia). The procedure, abridged:
as §1

In assay [19] the test system is KARPAS-620 (Plasma Cell Myeloma). The procedure, abridged:
as §1

Assay [20] has as its system IHH-4 (Thyroid Gland Carcinoma). The procedure, abridged:
as §1

For the molecule `CC1(C)CCC(CN2CCN(c3ccc(C(=O)NS(=O)(=O)c4ccc(NCC5CCOCC5)c([N+](=O)[O-])c4)c(Oc4cnc5[nH]ccc5c4)c3)CC2)=C(c2ccc(Cl)cc2)C1` [Venetoclax] + CN(C)CCCOc1ccc(-c2ccc3ncc4c(c3c2)n(C2CCOCC2)c(=O)n4C)cn1 [AZD0156] (first compound max 1 µM, 7x7, partner max 1 µM), the “combination Emax” value in assay [1] stood at 0.14; in assay [2], 0.185; in [3], 0.211; in assay [4], 0.238; in [5], 0.154; in assay [6], 0.221. The “combination Emax” value in [7] was 0.248; in assay [8] it was 0.267; in [9], 0.17; in assay [10], 0.212; in assay [11], 0.273; in [12], 0.194. In addition, the “combination Emax” value in assay [13] was found to be 0.24; in assay [14] it was 0.249; in assay [15], 0.233; in assay [16] it was 0.214; in [17], 0.342; in assay [18], 0.89. Further, the “combination Emax” value was determined as 0.989 in assay [19] and 0.129 in assay [20].
On to `NC1(C(=O)N[C@@H](CCO)c2ccc(Cl)cc2)CCN(c2ncnc3[nH]ccc23)CC1` [Capivasertib] + CC(=O)c1c(C)c2cnc(Nc3ccc(N4CCNCC4)cn3)nc2n(C2CCCC2)c1=O [Palbociclib] (first compound max 10 µM, 7x7, partner max 10 µM), for which the “combination Emax” value was found to be 0.141 in assay [1]; 0.567 in assay [2]; 0.831 in [3]; 0.654 in assay [4]; 0.311 in assay [5]; 0.391 in assay [6]. Moreover, the “combination Emax” value in [7] was determined as 0.361; in [8], 0.577; in [9], 0.556; in assay [10] it was 0.248; in [11] it was 0.333; in [12], 0.259. Further, the “combination Emax” value in [13] worked out at 0.407; in assay [14], 0.17; in [15] it was 0.577; in assay [16] it was 0.465; in assay [17] it was 0.519; in [18], 0.858. Besides, the figures for the “combination Emax” value in assay [19] and in [20] were 0.781 and 0.618, respectively.
Turning to `CC1(C)CCC(CN2CCN(c3ccc(C(=O)NS(=O)(=O)c4ccc(NCC5CCOCC5)c([N+](=O)[O-])c4)c(Oc4cnc5[nH]ccc5c4)c3)CC2)=C(c2ccc(Cl)cc2)C1` [Venetoclax] + Cn1cnc2c(F)c(Nc3ccc(Br)cc3Cl)c(C(=O)NOCCO)cc21 [Selumetinib] (first compound max 1 µM, 7x7, partner max 3 µM), the “combination Emax” value was 0.324 in [1]; 0.289 in assay [2]; 0.301 in assay [3]; 0.146 in assay [4]; 0.186 in assay [5]; 0.0877 in assay [6]. The “combination Emax” value in assay [7] turned out to be 0.199; in assay [8] it was 0.38; in assay [9], 0.434; in assay [10], 0.227; in assay [11] it was 0.146; in assay [12], 0.119. In addition, the “combination Emax” value is 0.124 in assay [13]; 0.206 in assay [14]; 0.64 in assay [15]; 0.202 in assay [16]; 0.275 in [17]; 0.908 in assay [18]. The “combination Emax” value in assay [19] was 1; in assay [20] it was 0.539.
With `Cc1c2c(nn1C)CSCc1cc(n(C)n1)CSc1cc(c3ccccc3c1)OCCCc1c(C(=O)O)n(C)c3c-2c(Cl)ccc13` [AZD5991] + C[C@@H]1COCCN1C2=NC(=NC(=C2)C3(CC3)[S@](=N)(=O)C)C4=C5C=CNC5=NC=C4 [AZD6738] (first compound max 1 µM, 7x7, partner max 10 µM), the “combination Emax” value in assay [1] turned out to be 1; in assay [2], 0.795; in assay [3], 0.852; in [4] it was 0.565; in assay [5], 0.373; in [6], 0.956. Besides, the “combination Emax” value in assay [7] was found to be 0.488; in assay [8] it was 0.546; in [9], 0.437; in assay [10] it was 0.255; in assay [11] it was 0.281; in assay [12], 0.247. Also, the “combination Emax” value in [13] was determined as 0.441; in assay [14], 0.228; in [15] it was 0.836; in assay [16] it was 0.71; in assay [17] it was 0.555; in [18] it was 0.895. Further, the “combination Emax” value worked out at 1 in assay [19] and 0.709 in assay [20].
Turning to `CC1(C)CCC(CN2CCN(c3ccc(C(=O)NS(=O)(=O)c4ccc(NCC5CCOCC5)c([N+](=O)[O-])c4)c(Oc4cnc5[nH]ccc5c4)c3)CC2)=C(c2ccc(Cl)cc2)C1` [Venetoclax] + C=CCn1c(=O)c2cnc(Nc3ccc(N4CCN(C)CC4)cc3)nc2n1-c1cccc(C(C)(C)O)n1 [AZD1775] (first compound max 1 µM, partner max 1 µM), the “combination Emax” value in [1] turned out to be 0.516; in assay [2], 0.57; in assay [3] it was 0.396; in [4] it was 0.648; in [5], 0.382; in assay [6], 1. In addition, the “combination Emax” value in assay [7] is 0.481; in assay [8], 0.481; in assay [9], 0.572; in [10], 0.148; in assay [11] it was 0.263; in [12], 0.27. The “combination Emax” value in assay [13] was 0.307; in assay [14], 0.381; in assay [15] it was 0.89; in assay [16], 0.641; in [17], 0.495; in assay [18] it was 1. In addition, the figures for the “combination Emax” value in assay [19] and in [20] were 0.976 and 0.711, respectively.
